Results taken from patent US9861600B2, “Methods and compositions for treating and identifying compounds to treat age-related macular degeneration treatment” (Arizona Board of Regents on behalf of the University of …, priority 2008, dated 2018).
Several values for one entry are separate records, joined by “and”; a condition that tells them apart may be missing. Equal values may be shown once. Read-outs that look alike come from different tables or passages of the source.

Tests used:
[1] = target: T1, OA1 (Homo sapiens, UniProt P51810); assay: Measurement of [Ca2+]i (Fura-2 ratiometric imaging) in CHO cells transfected to express OA1; assay type: cell-based; design: expressed in transfected cells; host or cells: CHO cells (ATCC)
[2] = target: T1, OA1; assay: Competitive binding against 5 μM [H3] L-DOPA in OA1 transfected CHO cells; design: expressed in transfected cells; host or cells: CHO cells (ATCC)
[3] = target: T1, OA1; assay: Cell surface biotinylation / western blot of OA1 in cultured cells at lowered tyrosine; assay type: cell-based; design: expressed in transfected cells; host or cells: CHO cells (ATCC)
Method: Endosomal localization of GPCRs occurs normally after exposure to a ligand. Therefore, it was investigated whether a ligand for the receptor was present in the standard incubation medium that could drive internalization of OA1. Since the standard culture medium contains 500 μM tyrosine, and tyrosine is the starting material for pigment synthesis, the effect of tyrosine on receptor distribution was evaluated. To test whether tyrosine affected OA1 distribution in cultured cells DMEM was formulated without tyrosine, and dialyzed fetal bovine serum was used. In the presence of tyrosine-free medium, OA1 was detected on the plasma membrane of cultured RPE cells both in the absence (not shown), and in medium containing low concentrations of tyrosine (1 μM, FIG. 1 B). […] Similarly, OA1-GFP expressed in COS illustrated a cell surface expression that was tyrosine sensitive (FIG. 1 C). Quantification of six such experiments indicated significant variability in the amount of OA1 found at the cell surface using transient transfections. […]
Not only was the distribution of OA1 in transfected cells sensitive to tyrosine levels in the medium, total OA1-GFP expression was increased 5-fold in cells maintained in 1 μM tyrosine. To verify that this difference related to OA1 expression rather than cell number, actin expression was evaluated from the paired samples. […]

[4] = target: T1, OA1; assay: Radiolabeled ligand binding of [3H]-L-DOPA to CHO cells transfected to express OA1 (saturation); design: expressed in transfected cells; host or cells: CHO cells (ATCC)
[5] = test system: retinal ganglion cells and photoreceptors; assay: L-DOPA supplementation in drinking water of tyrosinase deficient pregnant mice and pups (E7 to P14); assay type: in vivo; details: 1.0 mg/ml in drinking water, E7 to P14, tyrosinase deficient mice
[6] = target: T1, OA1; details: 1.0 μM
[7] = test system: PEDF secretion by RPE; assay: PEDF secretion by pigmented RPE cells (ELISA of conditioned medium); assay type: cell-based
Method: Mutations in OA1 cause defects in the development of the neurosensory retina. […] After treatment, the cells were returned to standard medium without exogenous L-DOPA for three days. Control cells were not treated with L-DOPA, but the medium was changed at the same time the experimental cells were returned to normal medium. Conditioned medium was collected after three days and PEDF was measured.
In these experiments, pigmented RPE cells were either maintained in DMEM, or DMEM containing 200 μM PTU for three days, then PEDF secretion was measured. […] The data are presented as percent of control for this experiment because the cultures used varied in both pigmentation and PEDF expression before the experiment began.

[8] = target: T1, OA1; details: untransfected cells

T1 sequence (P51810 whole entry): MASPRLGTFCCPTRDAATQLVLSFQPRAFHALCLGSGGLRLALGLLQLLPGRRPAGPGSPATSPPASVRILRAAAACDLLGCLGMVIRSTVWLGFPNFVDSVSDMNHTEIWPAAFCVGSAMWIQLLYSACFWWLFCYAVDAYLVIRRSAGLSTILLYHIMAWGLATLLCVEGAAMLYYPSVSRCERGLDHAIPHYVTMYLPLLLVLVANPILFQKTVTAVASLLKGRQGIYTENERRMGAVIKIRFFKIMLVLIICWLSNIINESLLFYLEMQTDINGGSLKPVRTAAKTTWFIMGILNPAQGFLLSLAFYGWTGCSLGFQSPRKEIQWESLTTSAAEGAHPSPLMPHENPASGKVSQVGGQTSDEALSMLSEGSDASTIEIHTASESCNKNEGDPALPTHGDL

Molecule: N[C@@H](Cc1ccc(O)cc1)C(=O)O [tyrosine]
- effect on [Ca2+]i ([1]; concentrations up to 1 mM, OA1 transfected CHO cells): no positive effect
- Ki [2]: 52.9 µM
- competition with L-DOPA for OA1 binding ([2]; competitor at 1 mM): competed with L-DOPA
- OA1 in the bound (cell surface) fraction ([3]; OA1-GFP transfected COS cells maintained in 1 μM tyrosine): 5-40%
- increase of total OA1-GFP expression ([3]; transfected cells in 1 μM tyrosine vs normal DMEM (500 μM)): 5 fold

Molecule: N[C@@H](Cc1ccc(O)c(O)c1)C(=O)O [L-DOPA, 2-amino-3-(3,4-dihydroxyphenyl)propanoic acid]
- pertussis toxin sensitivity of the [Ca2+]i increase ([1]; in presence of pertussis toxin, CHO and RPE): not pertussis toxin sensitive
- Kd ([4]; Kd of L-DOPA binding to OA1, OA1 transfected CHO cells, [3H]-L-DOPA): 9.34 µM and 9.35 µM
- specific binding of L-DOPA ([4]; untransfected CHO cells): No specific binding
- photoreceptor nuclear area (measure of photoreceptor numbers) [5]: increased the photoreceptor nuclear area
- retinal ganglion cell numbers [5]: increases retinal ganglion cell numbers
- change in [Ca2+]i ([6]; RPE cells transfected to express OA1): increase
- change in [Ca2+]i ([6]; RPE expressing endogenous OA1): increase
- PEDF secretion ([7]; 1 μM for one hour, medium collected after three days, vs paired control pigmented RPE): significant increase
- PEDF secretion ([7]; 1.0 μM in continued presence of PTU, measured after 72 hours): increasing PEDF secretion
- β-arrestin distribution response [8]: no response

Molecule: NC(=S)Nc1ccccc1 [PTU, phenylthiourea]
- PEDF secretion ([7]; 200 μM for three days, pigmented RPE): significant decrease

Molecule: pertussis toxin
- basal level of [Ca2+]i ([1]; all cells studied (transfected CHO and RPE, RPE with endogenous OA1)): lowered the basal level
